Experimental data as given in PMC10095950, “Development of Cell Permeable NanoBRET Probes for the Measurement of PLK1 Target Engagement in Live Cells” (Molecules, 2023).

Columns and labels:
Format in all cases: cell-based
[1] = target: T1, human PLK1 (NLuc-PLK1) (Homo sapiens, UniProt P53350); assay: PLK1 NanoBRET target engagement assay (NLuc-PLK1, N-terminal fusion) in live HEK293 cells; settings: probe 11; at least three technical replicates; read-out: PLK1 NanoBRET IC50 (dose response, Figure 3a)
T1 construct: plasmid DNAs encoding N- and C-terminal fusions of full-length PLK1 with NLuc; host or cells: HEK293
T1 sequence (P53350 whole entry, the tested form may be a part): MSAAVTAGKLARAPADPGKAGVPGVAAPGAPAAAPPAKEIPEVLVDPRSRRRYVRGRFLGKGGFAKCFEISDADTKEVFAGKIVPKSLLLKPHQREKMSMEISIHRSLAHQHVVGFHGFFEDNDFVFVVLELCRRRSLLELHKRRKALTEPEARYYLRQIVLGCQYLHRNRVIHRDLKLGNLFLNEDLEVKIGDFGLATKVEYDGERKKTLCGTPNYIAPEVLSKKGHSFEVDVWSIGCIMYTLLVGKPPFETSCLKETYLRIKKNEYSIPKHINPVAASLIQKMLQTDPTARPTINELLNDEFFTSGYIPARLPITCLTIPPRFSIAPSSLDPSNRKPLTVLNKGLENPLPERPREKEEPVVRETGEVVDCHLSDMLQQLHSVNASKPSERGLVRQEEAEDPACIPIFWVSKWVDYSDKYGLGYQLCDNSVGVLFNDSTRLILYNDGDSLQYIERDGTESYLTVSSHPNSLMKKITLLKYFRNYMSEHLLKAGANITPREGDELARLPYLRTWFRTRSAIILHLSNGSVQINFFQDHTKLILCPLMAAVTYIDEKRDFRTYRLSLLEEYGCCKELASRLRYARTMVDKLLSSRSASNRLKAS
Protocol: HEK293 cells (ATCC) were cultured in DMEM (Gibco) + 10% FBS (Seradigm) with incubation in a humidified 37 °C/5% CO2 incubator. N- or C-terminal NLuc/PLK fusions were encoded in pFN31K expression vectors (Promega), including flexible Gly-Ser-Ser-Gly linkers between NLuc and ORFs corresponding to UniProt isoform 1 (PLK1: P53350-1, PLK2: Q9NYY3-1, and PLK3: Q9H4B4-1). Carrier DNA was encoded in pGEM-3Z vectors (Promega). For cellular BRET target engagement experiments, HEK293 cells were transfected with NLuc/PLK fusion constructs using FuGENE HD (Promega) according to the manufacturer’s protocol. […] One part (vol) of FuGENE HD complexes thus formed was combined with 20 parts (vol) of HEK293 cells suspended at a density of 2 × 10^5 per mL, followed by incubation in a humidified 37 °C/5% CO2 incubator for 20 hr.
To test BRET probes 10 and 11 against PLK1, HEK293 adherent cells were incubated with either NLuc fused to the N-terminus of PLK1 (NLuc-PLK1) or the C-terminus of PLK1 (PLK1-NLuc) using 1 µM of the BRET probe, and mBRET units were measured. […] NLuc-PLK2 and NLuc-PLK3 were tested with both probes 10 and 11 using the same protocol.
To estimate the half-maximal effective concentration (EC50) of probe 11 to PLK1 in cells, adherent HEK293 cells in a 96-well plate expressing the NLuc-PLK1 fusion protein were mixed with an increasing concentration of BRET probe 11. The resulting BRET ratio was fitted to the sigmoidal 4-parameter dose–response curve using Prism 9.0 (GraphPad, Boston MA, USA).

[2] = target: T2, PLK2 (Homo sapiens, UniProt Q9NYY3); settings: live cell, K10 tracer
T2 construct: host or cells: HEK293
T2 sequence (Q9NYY3 whole entry): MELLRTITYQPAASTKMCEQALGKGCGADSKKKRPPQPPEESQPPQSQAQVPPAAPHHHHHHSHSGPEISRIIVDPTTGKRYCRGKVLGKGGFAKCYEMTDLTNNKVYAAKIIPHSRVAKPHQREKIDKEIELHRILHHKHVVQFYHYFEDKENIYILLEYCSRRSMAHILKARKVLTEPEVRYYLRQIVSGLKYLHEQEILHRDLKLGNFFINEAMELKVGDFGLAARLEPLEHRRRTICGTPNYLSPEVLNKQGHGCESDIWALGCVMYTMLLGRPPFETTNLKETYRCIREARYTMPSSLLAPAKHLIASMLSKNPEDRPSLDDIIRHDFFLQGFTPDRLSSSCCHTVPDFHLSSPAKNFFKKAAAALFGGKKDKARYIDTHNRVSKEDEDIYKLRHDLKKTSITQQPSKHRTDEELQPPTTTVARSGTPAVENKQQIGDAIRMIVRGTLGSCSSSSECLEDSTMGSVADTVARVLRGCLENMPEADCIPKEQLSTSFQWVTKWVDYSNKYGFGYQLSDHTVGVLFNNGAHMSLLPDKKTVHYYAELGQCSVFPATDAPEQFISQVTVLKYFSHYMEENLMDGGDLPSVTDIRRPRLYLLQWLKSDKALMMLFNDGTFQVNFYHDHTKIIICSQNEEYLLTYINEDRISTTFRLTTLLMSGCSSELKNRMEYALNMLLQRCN

[3] = target: T3, GAK (Homo sapiens, UniProt O14976); settings: live cell, K10 tracer
T3 construct: host or cells: HEK293
T3 sequence (O14976 1-1311): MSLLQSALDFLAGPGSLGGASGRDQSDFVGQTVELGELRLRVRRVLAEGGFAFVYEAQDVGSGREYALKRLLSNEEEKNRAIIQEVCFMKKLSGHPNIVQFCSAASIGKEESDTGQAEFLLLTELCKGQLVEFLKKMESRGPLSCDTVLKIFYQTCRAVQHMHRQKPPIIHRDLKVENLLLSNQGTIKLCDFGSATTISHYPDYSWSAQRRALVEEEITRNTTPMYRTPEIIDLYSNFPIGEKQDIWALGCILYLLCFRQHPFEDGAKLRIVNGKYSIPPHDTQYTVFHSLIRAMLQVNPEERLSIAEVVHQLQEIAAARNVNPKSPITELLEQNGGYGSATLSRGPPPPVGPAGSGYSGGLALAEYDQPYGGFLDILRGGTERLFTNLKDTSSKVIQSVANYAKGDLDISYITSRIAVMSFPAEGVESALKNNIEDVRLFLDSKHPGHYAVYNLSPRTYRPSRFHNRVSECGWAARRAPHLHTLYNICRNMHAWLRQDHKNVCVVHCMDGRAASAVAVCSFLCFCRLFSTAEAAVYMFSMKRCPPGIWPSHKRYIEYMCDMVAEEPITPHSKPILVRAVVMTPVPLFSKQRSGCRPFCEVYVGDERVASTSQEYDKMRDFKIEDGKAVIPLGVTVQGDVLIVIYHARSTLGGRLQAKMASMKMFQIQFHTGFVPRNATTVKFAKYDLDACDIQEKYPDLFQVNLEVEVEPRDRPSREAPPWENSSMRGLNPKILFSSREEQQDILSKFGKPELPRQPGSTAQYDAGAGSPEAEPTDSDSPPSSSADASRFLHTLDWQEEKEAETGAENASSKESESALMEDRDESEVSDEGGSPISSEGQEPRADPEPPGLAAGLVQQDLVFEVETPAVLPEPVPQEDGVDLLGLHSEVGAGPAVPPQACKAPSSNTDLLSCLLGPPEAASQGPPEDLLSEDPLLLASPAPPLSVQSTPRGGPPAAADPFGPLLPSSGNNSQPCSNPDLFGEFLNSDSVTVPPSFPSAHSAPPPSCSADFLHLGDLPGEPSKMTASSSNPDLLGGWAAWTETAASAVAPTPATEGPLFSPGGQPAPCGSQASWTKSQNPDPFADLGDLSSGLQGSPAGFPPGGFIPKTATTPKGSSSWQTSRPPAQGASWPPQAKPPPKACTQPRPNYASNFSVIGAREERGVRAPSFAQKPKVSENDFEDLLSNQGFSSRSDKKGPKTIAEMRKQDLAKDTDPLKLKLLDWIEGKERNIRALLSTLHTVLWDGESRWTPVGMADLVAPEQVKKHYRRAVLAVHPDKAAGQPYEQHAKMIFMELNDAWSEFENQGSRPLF

[4] = target: T4, TNNI3K (Homo sapiens, UniProt Q59H18); settings: live cell, K10 tracer
T4 construct: host or cells: HEK293
T4 sequence (Q59H18 1-835): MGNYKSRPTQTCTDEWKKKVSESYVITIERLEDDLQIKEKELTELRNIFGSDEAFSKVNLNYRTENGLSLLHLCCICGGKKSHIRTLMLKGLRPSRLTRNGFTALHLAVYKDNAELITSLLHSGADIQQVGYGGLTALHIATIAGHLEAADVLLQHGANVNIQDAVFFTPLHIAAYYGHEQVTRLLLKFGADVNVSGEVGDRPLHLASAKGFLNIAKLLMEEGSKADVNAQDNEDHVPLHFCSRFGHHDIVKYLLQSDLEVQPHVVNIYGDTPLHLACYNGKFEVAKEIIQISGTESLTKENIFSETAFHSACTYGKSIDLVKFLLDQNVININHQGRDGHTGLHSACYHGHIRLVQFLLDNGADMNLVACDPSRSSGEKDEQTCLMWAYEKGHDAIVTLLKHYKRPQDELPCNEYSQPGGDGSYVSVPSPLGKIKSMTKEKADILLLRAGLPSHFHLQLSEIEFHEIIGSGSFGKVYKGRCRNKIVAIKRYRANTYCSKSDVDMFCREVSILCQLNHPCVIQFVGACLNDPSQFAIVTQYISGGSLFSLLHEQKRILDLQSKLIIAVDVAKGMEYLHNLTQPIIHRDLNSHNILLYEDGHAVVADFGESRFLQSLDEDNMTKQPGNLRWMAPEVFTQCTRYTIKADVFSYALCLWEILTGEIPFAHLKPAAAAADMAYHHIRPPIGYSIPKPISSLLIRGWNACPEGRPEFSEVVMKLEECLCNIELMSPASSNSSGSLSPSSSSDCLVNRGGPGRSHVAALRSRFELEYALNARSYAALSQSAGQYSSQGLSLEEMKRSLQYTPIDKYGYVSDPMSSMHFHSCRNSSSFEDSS

[5] = target: T5, WEE2 (Homo sapiens, UniProt P0C1S8); settings: live cell, K10 tracer
T5 construct: host or cells: HEK293
T5 sequence (P0C1S8 whole entry): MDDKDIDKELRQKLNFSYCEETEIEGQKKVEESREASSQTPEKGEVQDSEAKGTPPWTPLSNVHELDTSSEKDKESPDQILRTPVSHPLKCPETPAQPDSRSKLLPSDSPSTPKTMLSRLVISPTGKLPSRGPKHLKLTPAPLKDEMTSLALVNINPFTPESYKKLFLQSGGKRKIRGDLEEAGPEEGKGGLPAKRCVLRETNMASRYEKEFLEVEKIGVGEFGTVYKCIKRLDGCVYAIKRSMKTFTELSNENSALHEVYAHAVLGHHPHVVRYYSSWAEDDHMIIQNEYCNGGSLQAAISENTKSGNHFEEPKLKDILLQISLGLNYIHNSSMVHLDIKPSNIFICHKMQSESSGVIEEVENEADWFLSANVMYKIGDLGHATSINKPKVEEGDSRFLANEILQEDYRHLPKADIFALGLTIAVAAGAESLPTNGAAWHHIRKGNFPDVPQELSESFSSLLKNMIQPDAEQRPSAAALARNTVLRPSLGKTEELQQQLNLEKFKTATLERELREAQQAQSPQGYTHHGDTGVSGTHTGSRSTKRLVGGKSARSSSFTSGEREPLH

[6] = target: T6, PLK3 (Homo sapiens, UniProt Q9H4B4); settings: live cell, K10 tracer
T6 construct: host or cells: HEK293
T6 sequence (Q9H4B4 whole entry): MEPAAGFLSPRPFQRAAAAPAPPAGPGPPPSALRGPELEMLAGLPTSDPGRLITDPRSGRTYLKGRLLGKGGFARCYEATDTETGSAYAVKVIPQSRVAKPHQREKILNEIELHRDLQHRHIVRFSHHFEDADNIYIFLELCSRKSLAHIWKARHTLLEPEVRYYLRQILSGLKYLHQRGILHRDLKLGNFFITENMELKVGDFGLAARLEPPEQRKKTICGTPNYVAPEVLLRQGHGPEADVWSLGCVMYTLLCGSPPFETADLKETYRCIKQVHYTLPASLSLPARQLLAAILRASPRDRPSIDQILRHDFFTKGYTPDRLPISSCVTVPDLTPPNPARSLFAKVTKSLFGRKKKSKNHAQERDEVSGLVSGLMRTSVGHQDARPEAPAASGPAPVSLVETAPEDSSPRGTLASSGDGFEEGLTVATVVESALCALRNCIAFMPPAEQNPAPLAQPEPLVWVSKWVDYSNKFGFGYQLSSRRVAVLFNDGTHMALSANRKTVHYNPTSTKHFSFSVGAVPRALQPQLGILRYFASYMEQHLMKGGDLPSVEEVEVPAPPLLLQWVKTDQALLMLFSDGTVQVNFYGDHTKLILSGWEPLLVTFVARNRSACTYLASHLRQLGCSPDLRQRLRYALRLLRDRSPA

[7] = target: T7, WEE1 (Homo sapiens, UniProt P30291); settings: live cell, K10 tracer
T7 construct: host or cells: HEK293
T7 sequence (P30291 whole entry): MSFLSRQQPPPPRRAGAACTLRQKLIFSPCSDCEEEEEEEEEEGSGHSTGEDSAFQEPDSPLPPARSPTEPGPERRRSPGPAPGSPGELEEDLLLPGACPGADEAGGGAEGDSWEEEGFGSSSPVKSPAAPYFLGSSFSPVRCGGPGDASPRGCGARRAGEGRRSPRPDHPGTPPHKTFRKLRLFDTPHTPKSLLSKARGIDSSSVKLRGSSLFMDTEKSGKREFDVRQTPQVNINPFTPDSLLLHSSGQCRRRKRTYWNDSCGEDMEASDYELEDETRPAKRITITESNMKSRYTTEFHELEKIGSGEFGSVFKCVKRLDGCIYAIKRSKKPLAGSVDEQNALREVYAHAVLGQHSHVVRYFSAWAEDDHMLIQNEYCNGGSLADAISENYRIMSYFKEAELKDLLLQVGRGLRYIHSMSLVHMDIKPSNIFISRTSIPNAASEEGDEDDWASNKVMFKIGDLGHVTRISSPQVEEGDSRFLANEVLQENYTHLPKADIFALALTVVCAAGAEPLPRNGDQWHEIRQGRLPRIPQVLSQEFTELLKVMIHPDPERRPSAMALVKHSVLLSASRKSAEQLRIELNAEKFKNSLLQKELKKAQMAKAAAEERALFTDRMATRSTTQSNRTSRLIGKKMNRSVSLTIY

[8] = target: T8, MAP3K4 (Homo sapiens, UniProt Q9Y6R4); settings: live cell, K10 tracer
T8 construct: host or cells: HEK293
T8 sequence (Q9Y6R4 whole entry): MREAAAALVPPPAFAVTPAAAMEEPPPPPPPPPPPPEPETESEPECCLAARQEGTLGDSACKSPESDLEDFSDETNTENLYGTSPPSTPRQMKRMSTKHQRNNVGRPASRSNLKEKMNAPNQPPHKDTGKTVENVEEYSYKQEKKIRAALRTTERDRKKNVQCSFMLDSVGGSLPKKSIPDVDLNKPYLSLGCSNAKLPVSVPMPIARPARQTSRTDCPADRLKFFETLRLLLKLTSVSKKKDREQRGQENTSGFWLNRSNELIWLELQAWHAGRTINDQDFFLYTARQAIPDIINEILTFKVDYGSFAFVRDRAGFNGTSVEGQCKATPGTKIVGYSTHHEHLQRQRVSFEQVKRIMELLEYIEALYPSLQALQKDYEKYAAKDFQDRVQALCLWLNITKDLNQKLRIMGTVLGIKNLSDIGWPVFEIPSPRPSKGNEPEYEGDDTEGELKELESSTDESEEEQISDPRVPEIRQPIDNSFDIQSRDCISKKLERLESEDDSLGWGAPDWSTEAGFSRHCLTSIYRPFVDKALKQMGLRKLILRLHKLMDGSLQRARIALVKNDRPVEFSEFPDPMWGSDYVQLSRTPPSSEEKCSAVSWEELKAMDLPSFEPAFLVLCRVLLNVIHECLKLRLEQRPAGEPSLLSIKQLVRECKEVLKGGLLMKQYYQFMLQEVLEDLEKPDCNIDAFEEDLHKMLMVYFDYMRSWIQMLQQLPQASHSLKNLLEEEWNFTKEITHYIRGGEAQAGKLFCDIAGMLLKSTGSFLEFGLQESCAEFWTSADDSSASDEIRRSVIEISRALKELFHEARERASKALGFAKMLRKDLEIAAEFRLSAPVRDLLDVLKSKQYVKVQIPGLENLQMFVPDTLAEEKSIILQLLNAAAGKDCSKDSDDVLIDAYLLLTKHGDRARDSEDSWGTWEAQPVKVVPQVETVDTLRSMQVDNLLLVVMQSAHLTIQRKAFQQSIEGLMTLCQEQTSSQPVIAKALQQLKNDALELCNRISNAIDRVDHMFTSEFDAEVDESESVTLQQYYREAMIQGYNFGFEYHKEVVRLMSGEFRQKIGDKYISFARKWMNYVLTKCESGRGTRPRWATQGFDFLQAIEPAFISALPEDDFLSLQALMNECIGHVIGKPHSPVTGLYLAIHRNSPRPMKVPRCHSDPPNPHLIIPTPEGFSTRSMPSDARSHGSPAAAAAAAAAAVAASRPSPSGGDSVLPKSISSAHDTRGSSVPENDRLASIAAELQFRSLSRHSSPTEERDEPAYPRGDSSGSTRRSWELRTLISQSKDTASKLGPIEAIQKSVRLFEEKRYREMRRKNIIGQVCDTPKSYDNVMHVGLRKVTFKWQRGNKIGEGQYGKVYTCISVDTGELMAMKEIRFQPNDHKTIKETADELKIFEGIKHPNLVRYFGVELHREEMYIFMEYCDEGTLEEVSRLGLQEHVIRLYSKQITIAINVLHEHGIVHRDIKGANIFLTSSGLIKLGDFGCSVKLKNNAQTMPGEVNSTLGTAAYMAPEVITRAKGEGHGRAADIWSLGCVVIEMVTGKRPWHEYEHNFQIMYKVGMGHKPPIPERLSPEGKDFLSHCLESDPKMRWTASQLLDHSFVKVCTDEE

IC50 [1]: > 1000 nM
receptor occupancy at 1 µM [2]: 95%
receptor occupancy at 1 µM [3]: 63%
receptor occupancy at 1 µM [4]: 70%
receptor occupancy at 1 µM [5]: 59%
receptor occupancy at 1 µM [6]: 53%
receptor occupancy at 1 µM [7]: 95%
receptor occupancy at 1 µM [8]: 67%
SMILES: C=CCn1c(=O)c2cnc(Nc3ccc(N4CCN(C)CC4)cc3)nc2n1-c1cccc(C(C)(C)O)n1 [adavosertib]
